Assay results: PubChem BioAssay AID248 (DTP/NCI, 2004)
“And” between values parts separate entries of the source, which are not always exact repeats. Identical values can stand only once. Toxic doses and inconclusive results are not listed.

System: L1210 leukemia ip in BDF1 mice, survival T/C
Test: NCI In Vivo Anticancer Drug Screen. Data for tumor model L1210 Leukemia (intraperitoneal) in B6D2F1 (BDF1) mice
Settings: endpoint: mean survival time, higher = longer survival
Procedure, shortened: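 Tumor cells were implanted, animals were treated, and survival was followed. The result divides the treated measurement by the vehicle-control measurement.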

[1] = dose: 100.0 mg/kg/injection, schedule: Q04DX003 (ip), vehicle: saline with Tween-80
[2] = dose: 200.0 mg/kg/injection, schedule: Q04DX003 (ip), vehicle: saline with Tween-80
[3] = dose: 400.0 mg/kg/injection, schedule: Q04DX003 (ip), vehicle: saline with Tween-80
[4] = dose: 100.0 mg/kg/injection, schedule: Q01DX001 (ip), vehicle: carboxymethylcellulose (CMC)
[5] = dose: 200.0 mg/kg/injection, schedule: Q01DX001 (ip), vehicle: carboxymethylcellulose (CMC)
[6] = dose: 100.0 mg/kg/injection, schedule: Q01DX009 (ip), vehicle: saline
[7] = dose: 200.0 mg/kg/injection, schedule: Q01DX009 (ip), vehicle: saline
[8] = dose: 50.0 mg/kg/injection, schedule: Q01DX001 (ip), vehicle: carboxymethylcellulose (CMC)
[9] = dose: 100.0 mg/kg/injection, schedule: Q04DX002 (ip), vehicle: Klucel (hydroxypropylcellulose) (HPC)
[10] = dose: 200.0 mg/kg/injection, schedule: Q04DX002 (ip), vehicle: Klucel (hydroxypropylcellulose) (HPC)
[11] = dose: 400.0 mg/kg/injection, schedule: Q04DX002 (ip), vehicle: Klucel (hydroxypropylcellulose) (HPC)
[12] = dose: 100.0 mg/kg/injection, schedule: Q01DX001 (ip), vehicle: Klucel (hydroxypropylcellulose) (HPC)
[13] = dose: 200.0 mg/kg/injection, schedule: Q01DX001 (ip), vehicle: Klucel (hydroxypropylcellulose) (HPC)
[14] = dose: 400.0 mg/kg/injection, schedule: Q01DX001 (ip), vehicle: carboxymethylcellulose (CMC)

## CC#CCCC(=O)OCCCC
dose: 100.0 mg/kg/injection, schedule: Q04DX002 (ip), vehicle: saline with Tween-80
  T/C: 101 % of control
dose: 200.0 mg/kg/injection, schedule: Q04DX002 (ip), vehicle: saline with Tween-80
  T/C: 93 % of control
dose: 400.0 mg/kg/injection, schedule: Q04DX002 (ip), vehicle: saline with Tween-80
  T/C: 97 % of control

## CC(CC12CC3CC(CC(C3)C1)C2)NN (stereo not drawn)
dose: 25.0 mg/kg/injection, schedule: Q04DX002 (ip), vehicle: Klucel (hydroxypropylcellulose) (HPC)
  T/C: 101 % of control
dose: 50.0 mg/kg/injection, schedule: Q04DX002 (ip), vehicle: Klucel (hydroxypropylcellulose) (HPC)
  T/C: 86 % of control

## c1ccc2c(c1)cc1ccc3cccc4ncc2c1c34
[1]
  T/C: 86 % of control
[2]
  T/C: 96 % of control
[3]
  T/C: 88 % of control

## CC(=O)Nc1cc(Cl)c(Cl)cc1Cl
[1]
  T/C: 103 % of control
[2]
  T/C: 102 % of control
[3]
  T/C: 96 % of control

## C1CC[C@@H]2NCCC[C@H]2C1
[4]
  T/C: 103 % of control
[5]
  T/C: 92 % of control

## CN(C)CCCN1c2ccccc2S(=O)c2ccc(Cl)cc21 (stereo not drawn)
dose: 12.5 mg/kg/injection, schedule: Q01DX009 (ip), vehicle: saline
  T/C: 96 % of control
dose: 25.0 mg/kg/injection, schedule: Q01DX009 (ip), vehicle: saline
  T/C: 102 % of control
dose: 25.0 mg/kg/injection, schedule: Q04DX003 (ip), vehicle: saline
  T/C: 109 % of control
dose: 50.0 mg/kg/injection, schedule: Q01DX009 (ip), vehicle: saline
  T/C: 111 % of control
dose: 50.0 mg/kg/injection, schedule: Q04DX003 (ip), vehicle: saline
  T/C: 106 % of control
[6]
  T/C: 96 % of control
dose: 100.0 mg/kg/injection, schedule: Q04DX003 (ip), vehicle: saline
  T/C: 95 % of control
[7]
  T/C: 107 % of control
dose: 200.0 mg/kg/injection, schedule: Q04DX003 (ip), vehicle: saline
  T/C: 103 % of control

## COC(c1ccccc1)[CH]([Hg][Br])C(=O)OC1CC2CCC1(C)C2(C)C (stereo not drawn)
[8]
  T/C: 93 % of control

## CC1(O)C2CC3CC(C2)CC1C3 (stereo not drawn)
[9]
  T/C: 113 % of control
[10]
  T/C: 98 % of control and 87 % of control
[11]
  T/C: 94 % of control

## O=S(c1ccc(Cl)cc1)N(OCc1ccccc1)S(=O)c1ccc(Cl)cc1 (stereo not drawn)
dose: 50.0 mg/kg/injection, schedule: Q01DX001 (ip), vehicle: Klucel (hydroxypropylcellulose) (HPC)
  T/C: 107 % of control
[12]
  T/C: 100 % of control
[13]
  T/C: 100 % of control

## CCC(=O)OCC1CCC(COC(=O)CC)CC1 (stereo not drawn)
dose: 222.0 mg/kg/injection, schedule: Q01DX Z (ip), vehicle: methylcellulose (MC)
  T/C: 100 % of control
dose: 333.0 mg/kg/injection, schedule: Q01DX Z (ip), vehicle: methylcellulose (MC)
  T/C: 96 % of control
dose: 500.0 mg/kg/injection, schedule: Q01DX Z (ip), vehicle: methylcellulose (MC)
  T/C: 97 % of control

## CC1(C)SC(C(NC(=O)Cc2ccccc2)C(=O)O)NC1C(=O)O (stereo not drawn)
dose: 100.0 mg/kg/injection, schedule: Q01DX009 (ip), vehicle: saline with Tween-80
  T/C: 92 % of control
dose: 400.0 mg/kg/injection, schedule: Q01DX009 (ip), vehicle: saline with Tween-80
  T/C: 97 % of control

## CCCCCCCCCC(=O)Nc1ccc(CC)cc1
[9]
  T/C: 94 % of control
[10]
  T/C: 101 % of control
[11]
  T/C: 111 % of control

## O=C1CCCNc2c(Br)cc(Br)cc21
[4]
  T/C: 91 % of control
[5]
  T/C: 94 % of control
[14]
  T/C: 100 % of control

## O=C(Nc1ccc(NC(=O)Nc2cccc(C3=NCCN3)c2)cc1)Nc1ccc(C2=NCCN2)cc1
dose: 1.0 mg/kg/injection, schedule: Q01DX Z (ip), vehicle: carboxymethylcellulose (CMC)
  T/C: 88 % of control
dose: 2.0 mg/kg/injection, schedule: Q01DX Z (ip), vehicle: carboxymethylcellulose (CMC)
  T/C: 102 % of control
dose: 4.0 mg/kg/injection, schedule: Q01DX Z (ip), vehicle: carboxymethylcellulose (CMC)
  T/C: 95 % of control
dose: 8.0 mg/kg/injection, schedule: Q01DX Z (ip), vehicle: carboxymethylcellulose (CMC)
  T/C: 107 % of control
dose: 14.0 mg/kg/injection, schedule: Q01DX Z (oral), vehicle: carboxymethylcellulose (CMC)
  T/C: 108 % of control
dose: 18.0 mg/kg/injection, schedule: Q01DX Z (ip), vehicle: carboxymethylcellulose (CMC)
  T/C: 202 % of control
dose: 21.0 mg/kg/injection, schedule: Q01DX Z (oral), vehicle: carboxymethylcellulose (CMC)
  T/C: 109 % of control
dose: 32.0 mg/kg/injection, schedule: Q01DX Z (oral), vehicle: carboxymethylcellulose (CMC)
  T/C: 103 % of control
dose: 36.0 mg/kg/injection, schedule: Q01DX Z (ip), vehicle: carboxymethylcellulose (CMC)
  T/C: 116 % of control
dose: 48.0 mg/kg/injection, schedule: Q01DX Z (oral), vehicle: carboxymethylcellulose (CMC)
  T/C: 103 % of control
dose: 62.0 mg/kg/injection, schedule: Q01DX Z (ip), vehicle: saline
  T/C: 164 % of control
dose: 72.0 mg/kg/injection, schedule: Q01DX Z (oral), vehicle: carboxymethylcellulose (CMC)
  T/C: 122 % of control
dose: 125.0 mg/kg/injection, schedule: Q01DX Z (ip), vehicle: saline
  T/C: 91 % of control

## COc1cc(N(CCCl)CCCl)ccc1/C=N/Nc1nncn1N
[8]
  T/C: 101 % of control
[4]
  T/C: 98 % of control
[5]
  T/C: 110 % of control
[14]
  T/C: 104 % of control

## O=C(CI)OCC#CCOC(=O)CI
dose: 12.5 mg/kg/injection, schedule: Q01DX001 (ip), vehicle: carboxymethylcellulose (CMC)
  T/C: 98 % of control
dose: 12.5 mg/kg/injection, schedule: Q01DX009 (ip), vehicle: carboxymethylcellulose (CMC)
  T/C: 90 % of control and 92 % of control
dose: 12.5 mg/kg/injection, schedule: Q04DX002 (ip), vehicle: carboxymethylcellulose (CMC)
  T/C: 104 % of control and 110 % of control
dose: 12.5 mg/kg/injection, schedule: Q04DX003 (ip), vehicle: carboxymethylcellulose (CMC)
  T/C: 95 % of control
dose: 25.0 mg/kg/injection, schedule: Q01DX001 (ip), vehicle: carboxymethylcellulose (CMC)
  T/C: 103 % of control
dose: 25.0 mg/kg/injection, schedule: Q01DX009 (ip), vehicle: carboxymethylcellulose (CMC)
  T/C: 86 % of control
dose: 25.0 mg/kg/injection, schedule: Q04DX002 (ip), vehicle: carboxymethylcellulose (CMC)
  T/C: 98 % of control
dose: 25.0 mg/kg/injection, schedule: Q04DX003 (ip), vehicle: carboxymethylcellulose (CMC)
  T/C: 103 % of control
[8]
  T/C: 92 % of control
dose: 50.0 mg/kg/injection, schedule: Q04DX002 (ip), vehicle: carboxymethylcellulose (CMC)
  T/C: 97 % of control and 103 % of control
dose: 50.0 mg/kg/injection, schedule: Q04DX003 (ip), vehicle: carboxymethylcellulose (CMC)
  T/C: 94 % of control

## CCOC(=O)/C(C#N)=C1/CCCN1
[6]
  T/C: 97 % of control
[7]
  T/C: 100 % of control
dose: 400.0 mg/kg/injection, schedule: Q01DX009 (ip), vehicle: saline
  T/C: 108 % of control

## O=COCC1CCC(NC(=O)N(CCCl)N=O)CC1 (stereo not drawn)
dose: 2.6 mg/kg/injection, schedule: Q01DX001 (ip), vehicle: Klucel (hydroxypropylcellulose) (HPC)
  T/C: 103 % of control
dose: 4.0 mg/kg/injection, schedule: Q01DX001 (ip), vehicle: Klucel (hydroxypropylcellulose) (HPC)
  T/C: 111 % of control
dose: 6.0 mg/kg/injection, schedule: Q01DX001 (ip), vehicle: Klucel (hydroxypropylcellulose) (HPC)
  T/C: 123 % of control
dose: 9.0 mg/kg/injection, schedule: Q01DX001 (ip), vehicle: Klucel (hydroxypropylcellulose) (HPC)
  T/C: 227 % of control
dose: 12.0 mg/kg/injection, schedule: Q01DX001 (ip), vehicle: Klucel (hydroxypropylcellulose) (HPC)
  T/C: 293 % of control and 319 % of control
dose: 15.0 mg/kg/injection, schedule: Q01DX001 (ip), vehicle: Klucel (hydroxypropylcellulose) (HPC)
  T/C: 273 % of control
dose: 18.0 mg/kg/injection, schedule: Q01DX001 (ip), vehicle: Klucel (hydroxypropylcellulose) (HPC)
  T/C: 328 % of control
dose: 26.0 mg/kg/injection, schedule: Q01DX001 (ip), vehicle: Klucel (hydroxypropylcellulose) (HPC)
  T/C: 280 % of control

## CCN(CC)CCNc1ccccc1Cl
dose: 100.0 mg/kg/injection, schedule: Q01DX001 (ip), vehicle: saline
  T/C: 101 % of control
dose: 200.0 mg/kg/injection, schedule: Q01DX001 (ip), vehicle: saline
  T/C: 101 % of control

## O=C(COc1ccccc1)Nc1cccnc1
[12]
  T/C: 94 % of control
[13]
  T/C: 102 % of control

## CSc1cc(N)nc2n[nH]nc12
[12]
  T/C: 97 % of control
[13]
  T/C: 110 % of control

## COc1ccc(NC(=O)Nc2cc(Cl)ccc2Cl)cc1
[1]
  T/C: 90 % of control
[2]
  T/C: 92 % of control
[3]
  T/C: 92 % of control
